Experimental data published in patent publication US9546164B2 (GENENTECH, INC., priority 2013, dated 2017).

Target: hNav1.7 (Homo sapiens (Human), UniProt Q15858)
Test: Tritiated sulfonamide competitive binding to membranes from cells expressing hNav1.7 and the β1 subunit;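 note: Filter-bound radioactivity counted by liquid scintillation, nonspecific binding defined with excess unlabelled ligand, IC50 fitted to percent inhibition of specific binding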
Details: read-out: Ligand Binding Assay; 100 pM [3H]compound, membranes with hNav1.7 and β1 subunit, 18 h, room temperature

hNav1.7, sequence (Q15858 other isoform, or with tags, fused parts or gaps): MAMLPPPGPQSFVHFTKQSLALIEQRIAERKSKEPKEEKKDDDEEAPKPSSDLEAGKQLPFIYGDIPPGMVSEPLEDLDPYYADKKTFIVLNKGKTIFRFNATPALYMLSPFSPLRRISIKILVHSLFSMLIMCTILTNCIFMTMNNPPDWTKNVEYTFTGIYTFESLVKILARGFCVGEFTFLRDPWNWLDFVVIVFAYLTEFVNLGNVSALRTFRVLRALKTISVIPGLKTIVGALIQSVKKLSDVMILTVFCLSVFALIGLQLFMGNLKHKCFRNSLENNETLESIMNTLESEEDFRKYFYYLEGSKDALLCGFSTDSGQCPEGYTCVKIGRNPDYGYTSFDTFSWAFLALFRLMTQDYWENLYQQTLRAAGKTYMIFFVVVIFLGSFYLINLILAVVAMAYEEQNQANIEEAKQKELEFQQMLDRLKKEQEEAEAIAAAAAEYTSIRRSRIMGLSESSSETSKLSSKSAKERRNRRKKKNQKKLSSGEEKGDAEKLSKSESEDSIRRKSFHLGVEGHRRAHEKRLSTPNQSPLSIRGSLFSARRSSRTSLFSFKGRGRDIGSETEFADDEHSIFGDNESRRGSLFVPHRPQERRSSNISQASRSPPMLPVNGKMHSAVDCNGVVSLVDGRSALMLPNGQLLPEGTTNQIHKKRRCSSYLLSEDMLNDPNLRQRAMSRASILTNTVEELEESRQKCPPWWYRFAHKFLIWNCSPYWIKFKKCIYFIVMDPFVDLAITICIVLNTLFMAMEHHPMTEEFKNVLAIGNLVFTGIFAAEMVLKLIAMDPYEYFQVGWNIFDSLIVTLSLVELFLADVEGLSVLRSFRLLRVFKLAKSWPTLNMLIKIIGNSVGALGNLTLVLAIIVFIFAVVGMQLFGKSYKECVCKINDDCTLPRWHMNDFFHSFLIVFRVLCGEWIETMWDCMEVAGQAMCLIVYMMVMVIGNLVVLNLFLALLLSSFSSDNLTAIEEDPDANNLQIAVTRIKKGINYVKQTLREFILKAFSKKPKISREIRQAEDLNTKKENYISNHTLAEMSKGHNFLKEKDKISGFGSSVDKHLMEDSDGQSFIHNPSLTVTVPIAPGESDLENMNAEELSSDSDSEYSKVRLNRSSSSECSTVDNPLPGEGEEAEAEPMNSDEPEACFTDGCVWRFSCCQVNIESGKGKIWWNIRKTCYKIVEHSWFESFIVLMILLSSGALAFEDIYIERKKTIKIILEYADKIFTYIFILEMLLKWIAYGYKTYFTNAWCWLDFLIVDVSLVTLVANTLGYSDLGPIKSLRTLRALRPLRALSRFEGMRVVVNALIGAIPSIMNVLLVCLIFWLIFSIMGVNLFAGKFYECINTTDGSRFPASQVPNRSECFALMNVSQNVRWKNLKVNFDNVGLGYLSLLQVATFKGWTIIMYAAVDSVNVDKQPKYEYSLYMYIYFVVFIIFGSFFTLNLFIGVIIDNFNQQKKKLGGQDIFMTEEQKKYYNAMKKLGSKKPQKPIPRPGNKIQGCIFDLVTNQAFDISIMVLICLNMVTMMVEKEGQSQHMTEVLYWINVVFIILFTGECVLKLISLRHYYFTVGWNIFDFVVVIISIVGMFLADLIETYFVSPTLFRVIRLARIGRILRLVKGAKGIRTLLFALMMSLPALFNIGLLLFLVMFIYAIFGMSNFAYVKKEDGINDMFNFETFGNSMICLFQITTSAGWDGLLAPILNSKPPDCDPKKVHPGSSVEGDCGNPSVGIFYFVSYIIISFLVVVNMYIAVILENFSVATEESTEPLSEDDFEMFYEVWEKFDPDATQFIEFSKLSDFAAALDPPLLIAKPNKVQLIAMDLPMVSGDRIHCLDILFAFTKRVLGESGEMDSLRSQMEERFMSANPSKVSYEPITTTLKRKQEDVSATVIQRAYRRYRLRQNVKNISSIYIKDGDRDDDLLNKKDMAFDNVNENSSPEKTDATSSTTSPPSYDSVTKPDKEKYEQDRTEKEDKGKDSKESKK
hNav1.7, sequence (Q07699 19-218 partner): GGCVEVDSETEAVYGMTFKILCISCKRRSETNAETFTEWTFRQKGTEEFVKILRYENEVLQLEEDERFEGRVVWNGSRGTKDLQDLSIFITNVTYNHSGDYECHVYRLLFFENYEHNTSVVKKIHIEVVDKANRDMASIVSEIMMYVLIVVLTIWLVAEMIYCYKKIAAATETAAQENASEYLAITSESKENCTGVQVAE

| SMILES | IC50 [nM] |
| --- | --- |
| CC1(COc2cc(F)c(C(=O)NS(C)(=O)=O)cc2C2CC2)CCN(Cc2cc(Cl)cc(C(F)(F)F)c2)CC1 [Example 140, 4-((1-(3-chloro-5-(trifluoromethyl)benzyl)-4-methylpiperidin-4-yl)methoxy)-5-cyclopropyl-2-fluoro-N-(methylsulfonyl)benzamide] | 3.5 |
| CC1(COc2cc(F)c(C(=O)NS(C)(=O)=O)cc2C2CC2)CCN(Cc2cc(C(F)(F)F)cc(Cl)c2F)CC1 [Example 141, 4-((1-(3-chloro-2-fluoro-5-(trifluoromethyl)benzyl)-4-methylpiperidin-4-yl)methoxy)-5-cyclopropyl-2-fluoro-N-(methylsulfonyl)benzamide] | 3.9 |
| CS(=O)(=O)NC(=O)c1cc(C2CC2)c(OCC2CN([C@@H](c3ccccc3)c3cc(Cl)cc(Cl)c3)C2)cc1F [Example 142, (S)-5-Cyclopropyl-4-((1-((3,5-dichlorophenyl)(phenyl)methyl)azetidin-3-yl)methoxy)-2-fluoro-N-(methylsulfonyl)benzamide] | 6.57 |
| CS(=O)(=O)NC(=O)c1cc(C2CC2)c(OCC2CN([C@H](c3ccccc3)c3cc(Cl)cc(Cl)c3)C2)cc1F [Example 143] | 2.6 |
| CS(=O)(=O)NC(=O)c1cc(C2CC2)c(OCC2CN([C@@H](c3ccccc3)c3ccc(F)cc3)C2)cc1F [Example 144, (S)-5-Cyclopropyl-2-fluoro-4-((1-((4-fluorophenyl)(phenyl)methyl)azetidin-3-yl)methoxy)-N-(methylsulfonyl)benzamide] | 9.15 |
| CS(=O)(=O)NC(=O)c1cc(C2CC2)c(OCC2CN([C@H](c3ccccc3)c3ccc(F)cc3)C2)cc1F [Example 145, (R)-5-Cyclopropyl-2-fluoro-4-((1-((4-fluorophenyl)(phenyl)methyl)-azetidin-3-yl)methoxy)-N-(methylsulfonyl)benzamide] | 6.22 |
| CS(=O)(=O)NC(=O)c1cc(C2CC2)c(OCC2CCN(Cc3ccccc3C#N)CC2)cc1F [Example 149, 4-((1-(2-Cyanobenzyl)piperidin-4-yl)methoxy)-5-cyclopropyl-2-fluoro-N-(methylsulfonyl)benzamide] | 73.7 |
| CS(=O)(=O)NC(=O)c1cc(C2CC2)c(OCC2CN([C@@H](c3ccccc3)c3ccccc3Cl)C2)cc1F [Example 150, (S)-4-((1-((2-Chlorophenyl)(phenyl)methyl)azetidin-3-yl)methoxy)-5-cyclopropyl-2-fluoro-N-(methylsulfonyl)benzamide] | 100 |
| CS(=O)(=O)NC(=O)c1cc(C2CC2)c(OCC2CN([C@H](c3ccccc3)c3ccccc3Cl)C2)cc1F [Example 151, (R)-4-((1-((2-Chlorophenyl)(phenyl)methyl)azetidin-3-yl)methoxy)-5-cyclopropyl-2-fluoro-N-(methylsulfonyl)benzamide] | 9.94 |
| CS(=O)(=O)NC(=O)c1cc(C2CC2)c(OCC2CN([C@@H](c3ccccc3)c3ccncc3)C2)cc1F [Example 152, (S)-5-Cyclopropyl-2-fluoro-N-(methylsulfonyl)-4-((1-(phenyl(pyridin-4-yl)methyl)azetidin-3-yl)methoxy)benzamide] | 443 |
| CS(=O)(=O)NC(=O)c1cc(C2CC2)c(OCC2CN([C@H](c3ccccc3)c3ccncc3)C2)cc1F [Example 153, (R)-5-Cyclopropyl-2-fluoro-N-(methylsulfonyl)-4-((1-(phenyl(pyridin-4-yl)methyl)azetidin-3-yl)methoxy)benzamide] | 439 |
| CS(=O)(=O)NC(=O)c1cc(C2CC2)c(OCC2CN(C(c3ccccc3)c3cccc(F)c3)C2)cc1F (stereo not drawn) [Example 154, 5-Cyclopropyl-2-fluoro-4-((1-((3-fluorophenyl)(phenyl)methyl)azetidin-3-yl)methoxy)-N-(methylsulfonyl)benzamide] | 9.12 |
| CC(c1ccc(OC(F)(F)F)cc1)N1CCC(COc2cc(F)c(C(=O)NS(C)(=O)=O)cc2C2CC2)CC1 (stereo not drawn) [Example 156] | 21 |
| CS(=O)(=O)NC(=O)c1cc(C2CC2)c(OCC2CCN(Cc3ccccc3C(F)(F)F)CC2)cc1F [Example 159, 5-Cyclopropyl-2-fluoro-N-(methylsulfonyl)-4-((1-(2-(trifluoromethyl)-benzyl)piperidin-4-yl)methoxy)benzamide] | 5.42 |
| C[C@H](c1cc(F)cc(C(F)(F)F)c1)N1CCC(C)(COc2cc(F)c(C(=O)NS(C)(=O)=O)cc2C2CC2)CC1 [Example 170, (R)-5-cyclopropyl-2-fluoro-4-((1-(1-(3-fluoro-5-(trifluoromethyl)phenyl)ethyl)-4-methylpiperidin-4-yl)methoxy)-N-(methylsulfonyl)benzamide] | 5 |
| CC(C)N(C(=O)CN1CCC[C@@H](Oc2cc(F)c(C(=O)NS(C)(=O)=O)cc2C2CC2)C1)C(C)C [Example 179] | 1800 |
| CC(C)N(C(=O)CN1CCC(COc2cc(F)c(C(=O)NS(C)(=O)=O)cc2C2CC2)CC1)C(C)C [Example 180, 5-Cyclopropyl-4-((1-(2-(diisopropylamino)-2-oxoethyl)piperidin-4-yl)methoxy)-2-fluoro-N-(methylsulfonyl)benzamide] | 9900 |
| CS(=O)(=O)NC(=O)c1cc(C2CC2)c(OCC2CCN(Cc3ccc(F)c(C(F)(F)F)c3)CC2)cc1F [Example 189, 5-Cyclopropyl-2-fluoro-4-((1-(4-fluoro-3-(trifluoromethyl)benzyl)piperidin-4-yl)methoxy)-N-(methylsulfonyl)benzamide] | 16 |
| CS(=O)(=O)NC(=O)c1cc(C2CC2)c(OCC2CCN(Cc3cnc(OCC(F)(F)F)c(Cl)c3)CC2)cc1F [Example 190, 4-((1-((5-Chloro-6-(2,2,2-trifluoroethoxy)pyridin-3-yl)methyl)piperidin-4-yl)methoxy)-5-cyclopropyl-2-fluoro-N-(methylsulfonyl)benzamide] | 56 |

Second part, the compound after the results:

| IC50 [nM] | SMILES |
| --- | --- |
| 6.03 | CS(=O)(=O)NC(=O)c1cc(C2CC2)c(OCC2CCN(Cc3ccc(Cl)c(Cl)c3)CC2)cc1F [Example 147, 5-Cyclopropyl-4-((1-(3,4-dichlorobenzyl)piperidin-4-yl)methoxy)-2-fluoro-N-(methylsulfonyl)benzamide] |
| 15 | CC(c1cccc(Cl)c1)N1CCC(COc2cc(F)c(C(=O)NS(C)(=O)=O)cc2C2CC2)CC1 (stereo not drawn) [Example 148, 4-((1-(1-(3-Chlorophenyl)ethyl)piperidin-4-yl)methoxy)-5-cyclopropyl-2-fluoro-N-(methylsulfonyl)benzamide] |
| 2.02 | CCC(c1cc(Cl)cc(Cl)c1)N1CCC(COc2cc(F)c(C(=O)NS(C)(=O)=O)cc2C2CC2)CC1 (stereo not drawn) [Example 155, 5-Cyclopropyl-4-((1-(1-(3,5-dichlorophenyl)propyl)piperidin-4-yl)methoxy)-2-fluoro-N-(methylsulfonyl)benzamide] |
| 12.3 | CCC(c1cc(Cl)cc(Cl)c1)N1CC(COc2cc(F)c(C(=O)NS(C)(=O)=O)cc2C2CC2)C1 (stereo not drawn) [Example 158, 5-Cyclopropyl-4-((1-(1-(3,5-dichlorophenyl)propyl)azetidin-3-yl)methoxy)-2-fluoro-N-(methylsulfonyl)benzamide] |
| 62.8 | CS(=O)(=O)NC(=O)c1cc(C2CC2)c(OCC2CCN(Cc3ccc(F)c(F)c3)CC2)cc1F [Example 160, 5-Cyclopropyl-4-((1-(3,4-difluorobenzyl)piperidin-4-yl)methoxy)-2-fluoro-N-(methylsulfonyl)benzamide] |
| 284 | CS(=O)(=O)NC(=O)c1cc(C2CC2)c(OCC2CCN(Cc3ccc(F)cc3)CC2)cc1F [Example 161, 5-Cyclopropyl-2-fluoro-4-((1-(4-fluorobenzyl)piperidin-4-yl)methoxy)-N-(methylsulfonyl)benzamide] |
| 12 | CS(=O)(=O)NC(=O)c1cc(C2CC2)c(OCC2CCN(C3(c4cc(Cl)cc(Cl)c4)COC3)CC2)cc1F [Example 174, 5-Cyclopropyl-4-((1-(3-(3,5-dichlorophenyl)oxetan-3-yl)piperidin-4-yl)methoxy)-2-fluoro-N-(methylsulfonyl)benzamide] |
| 5.2 | O=C(NS(=O)(=O)C1CC1)c1cc(C2CC2)c(OCC2CCN(C3(c4cc(Cl)cc(Cl)c4)COC3)CC2)cc1F [Example 175, 5-Cyclopropyl-N-(cyclopropylsulfonyl)-4-((1-(3-(3,5-dichlorophenyl)oxetan-3-yl)piperidin-4-yl)methoxy)-2-fluorobenzamide] |
| 9.1 | O=C(NS(=O)(=O)N1CCC1)c1cc(C2CC2)c(OCC2CCN(C3(c4cc(Cl)cc(Cl)c4)COC3)CC2)cc1F [Example 176] |
| 8.3 | CCS(=O)(=O)NC(=O)c1cc(C2CC2)c(OCC2CCN(C3(c4cc(Cl)cc(Cl)c4)COC3)CC2)cc1F [Example 177, 5-Cyclopropyl-4-((1-(3-(3,5-dichlorophenyl)oxetan-3-yl)piperidin-4-yl)methoxy)-N-(ethylsulfonyl)-2-fluorobenzamide] |
| 7.6 | CC1(COc2cc(F)c(C(=O)NS(C)(=O)=O)cc2C2CC2)CCN(C2(c3cc(Cl)cc(Cl)c3)COC2)CC1 [Example 178, 5-Cyclopropyl-4-((1-(3-(3,5-dichlorophenyl)oxetan-3-yl)-4-methylpiperidin-4-yl)methoxy)-2-fluoro-N-(methylsulfonyl)benzamide] |
| 47 | COc1ccc(CN2CCC(COc3cc(F)c(C(=O)NS(C)(=O)=O)cc3C3CC3)CC2)cc1Cl [Example 183, 4-((1-(3-Chloro-4-methoxybenzyl)piperidin-4-yl)methyoxy)-5-cyclopropyl-2-fluoro-N-(methylsulfonyl)benzamide] |
| 5.1 | CCS(=O)(=O)NC(=O)c1cc(C2CC2)c(OCC2CCN(Cc3cc(Cl)cc(Cl)c3)CC2)cc1F [Example 184, 5-Cyclopropyl-4-((1-(3,5-dichlorobenzyl)piperidin-4-yl)methoxy)-N-(ethylsulfonyl)-2-fluorobenzamide] |
| 32 | CS(=O)(=O)NC(=O)c1cc(C2CC2)c(OCC2CCN(Cc3ccccc3Cl)CC2)cc1F [Example 191, 4-((1-(2-Chlorobenzyl)piperidin-4-yl)methoxy)-5-cyclopropyl-2-fluoro-N-(methylsulfonyl)benzamide] |
